Values after ≈ are worked out from the molar mass of the structure shown.

The subject of one assay is Escherichia coli. The assay can be described thus: Antibacterial activity against Escherichia coli ATCC 25922. In kind it is functional.
In assay [1] the test system is Staphylococcus aureus. The assay can be described thus: Antibacterial activity against Staphylococcus aureus ATCC 29213. Type of assay: functional.
Assay [2] has as its system Staphylococcus aureus. The assay can be described thus: Antibacterial activity against methicillin-resistant Staphylococcus aureus ATCC 700699. Type of assay: functional.
Assay [3] addresses DNA topoisomerase 4 subunit A (Staphylococcus aureus, UniProt P0C1U9). The assay can be described thus: Inhibitory activity against Staphylococcus aureus ATCC 29213 wild type Topo 4.
The subject of the next assay is HEp-2. The assay can be described thus: Cytotoxicity against Hep2 cell line. Particulars: Homo sapiens. In kind it is functional.

DNA topoisomerase 4 subunit A, sequence (P0C1U9 whole entry): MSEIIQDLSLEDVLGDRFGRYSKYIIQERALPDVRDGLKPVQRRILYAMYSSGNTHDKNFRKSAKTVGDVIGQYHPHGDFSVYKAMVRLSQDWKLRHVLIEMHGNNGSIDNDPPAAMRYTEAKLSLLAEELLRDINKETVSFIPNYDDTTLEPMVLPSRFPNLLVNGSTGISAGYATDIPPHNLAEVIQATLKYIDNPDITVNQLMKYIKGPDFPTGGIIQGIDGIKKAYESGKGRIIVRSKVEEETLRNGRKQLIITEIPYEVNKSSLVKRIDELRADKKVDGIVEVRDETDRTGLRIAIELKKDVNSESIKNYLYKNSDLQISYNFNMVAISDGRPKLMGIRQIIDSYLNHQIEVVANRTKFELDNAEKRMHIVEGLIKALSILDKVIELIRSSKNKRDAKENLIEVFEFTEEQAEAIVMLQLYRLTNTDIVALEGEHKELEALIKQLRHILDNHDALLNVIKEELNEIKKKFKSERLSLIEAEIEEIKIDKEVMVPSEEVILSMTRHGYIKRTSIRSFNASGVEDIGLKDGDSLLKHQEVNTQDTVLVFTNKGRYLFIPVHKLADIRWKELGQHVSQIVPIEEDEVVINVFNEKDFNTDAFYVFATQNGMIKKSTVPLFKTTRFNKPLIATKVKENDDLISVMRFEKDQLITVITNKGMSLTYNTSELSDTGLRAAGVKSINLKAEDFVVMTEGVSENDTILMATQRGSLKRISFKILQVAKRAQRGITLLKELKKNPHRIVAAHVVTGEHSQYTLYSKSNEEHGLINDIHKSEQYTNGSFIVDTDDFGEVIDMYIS

Consider `O=c1[nH]sc2c1c(=O)c1cc(F)c(-c3cnccn3)cc1n2C1CC1`, for which the minimum inhibitory concentration (MIC) (in general, the smallest concentration in the dilution series that meets the test's criterion for growth inhibition) in the assay with Escherichia coli was 1 µg/mL (≈ 2.82 µM); in the assay with Staphylococcus aureus [1], 0.12 µg/mL (≈ 0.339 µM); with Staphylococcus aureus [2] it was more than 64 µg/mL. In addition, in assay [3], half-maximal inhibition (IC50) was put at 64 µM. In addition, the CC50 (usually the concentration that lowers cell viability or growth by half) in the assay with HEp-2 was more than 91 µM.
On the same counts, the results for `COc1ncc(-c2cc3c(cc2F)c(=O)c2c(=O)[nH]sc2n3C2CC2)cn1` are 0.13 µg/mL (≈ 0.338 µM), 0.015 µg/mL (≈ 0.039 µM), 8 µg/mL (≈ 20.8 µM), 3.3 µM and 43 µM.
For `O=c1[nH]sc2c1c(=O)c1cc(F)c(-c3cncc(C4CCCCN4)c3)cc1n2C1CC1` (stereo not drawn), in that order: 0.46 µg/mL (≈ 1.05 µM), 0.12 µg/mL (≈ 0.275 µM), 8 µg/mL (≈ 18.3 µM), 5 µM and 6 µM.
On the same counts, the results for `O=c1[nH]sc2c1c(=O)c1cc(F)c(-c3ccnc(CO)c3)cc1n2C1CC1` are 0.14 µg/mL (≈ 0.365 µM), 0.034 µg/mL (≈ 0.0887 µM), 32 µg/mL (≈ 83.5 µM), 4.8 µM and more than 100 µM.
With `O=c1[nH]sc2c1c(=O)c1cc(F)c(-c3cnc4ccccc4c3)cc1n2C1CC1`, the minimum inhibitory concentration (MIC) amounted to 0.13 µg/mL (≈ 0.322 µM) in the assay on Escherichia coli, 0.011 µg/mL (≈ 0.0273 µM) in the assay on Staphylococcus aureus [1] and 8 µg/mL (≈ 19.8 µM) in the assay on Staphylococcus aureus [2]. Besides, the midpoint of inhibition in assay [3], the IC50, lay at 50 µM. Also, the CC50 in the assay on HEp-2 was more than 100 µM.
Consider `O=c1[nH]sc2c1c(=O)c1cc(F)c(-c3ccncc3)cc1n2C1CC1`, for which the minimum inhibitory concentration (MIC) with Escherichia coli came out at 0.028 µg/mL (≈ 0.0792 µM); with Staphylococcus aureus [1] it was 0.0035 µg/mL (≈ 0.0099 µM); against Staphylococcus aureus [2], 1 µg/mL (≈ 2.83 µM). Also, the IC50 – broadly, the concentration needed to halve the response being measured – in assay [3] turned out to be 2.2 µM.
As to `O=c1[nH]sc2c1c(=O)c1cc(F)c(-c3cccnc3F)cc1n2C1CC1`, the minimal inhibitory concentration (MIC) in the assay with Escherichia coli and with Staphylococcus aureus [1] was 0.015 µg/mL (≈ 0.0404 µM) each time. The IC50 in assay [3] is 2.4 µM. The compound further came in with a CC50 in the assay on HEp-2 of more than 100 µM.
As for `Cn1ccc2cc(-c3cc4c(cc3F)c(=O)c3c(=O)[nH]sc3n4C3CC3)ccc21`, the MIC in the assay with Escherichia coli is 1 µg/mL (≈ 2.47 µM); against Staphylococcus aureus [1], 0.065 µg/mL (≈ 0.16 µM); with Staphylococcus aureus [2] it was 8 µg/mL (≈ 19.7 µM). In assay [3], this compound displayed an IC50 of 3.6 µM. The CC50 in the assay on HEp-2 is more than 100 µM.
For `O=c1[nH]sc2c1c(=O)c1cc(F)c(-c3ccc(-n4cccc4)nc3)cc1n2C1CC1`, in that order: 1 µg/mL (≈ 2.39 µM), 0.029 µg/mL (≈ 0.0693 µM), 4 µg/mL (≈ 9.56 µM), 18 µM and more than 100 µM.
In the case of `O=c1[nH]sc2c1c(=O)c1cc(F)c(-c3cccc4cccnc34)cc1n2C1CC1`, the values for the minimal inhibitory concentration (MIC) with Escherichia coli, in the assay on Staphylococcus aureus [1] and against Staphylococcus aureus [2] were 0.75 µg/mL (≈ 1.86 µM), 0.13 µg/mL (≈ 0.322 µM) and 16 µg/mL (≈ 39.7 µM), respectively. Further, in assay [3], the IC50 is more than 40 µM. For the same compound, in the assay with HEp-2, the cytotoxic concentration (CC50) turned out to be 79 µM.
On the same counts, the results for `O=c1[nH]sc2c1c(=O)c1cc(F)c(-c3ccc[nH]3)cc1n2C1CC1` are 1 µg/mL (≈ 2.93 µM), 0.06 µg/mL (≈ 0.176 µM), 16 µg/mL (≈ 46.9 µM), 9.9 µM and 23 µM.
Take `O=c1[nH]sc2c1c(=O)c1cc(F)c(-c3cncc(C4CCCN4)c3)cc1n2C1CC1` (stereo not drawn): the minimal inhibitory concentration (MIC) was 0.12 µg/mL (≈ 0.284 µM) in the assay on Escherichia coli, 0.06 µg/mL (≈ 0.142 µM) against Staphylococcus aureus [1] and 8 µg/mL (≈ 18.9 µM) in the assay on Staphylococcus aureus [2]. Also, 1.1 µM corresponded to half-maximal inhibition in assay [3] (IC50). Also, the CC50 in the assay on HEp-2 was 25 µM.
On the same counts, the results for `O=c1[nH]sc2c1c(=O)c1cc(F)c(-c3ccc4ncccc4c3)cc1n2C1CC1` are 0.13 µg/mL (≈ 0.322 µM), 0.0032 µg/mL (≈ 0.00793 µM), 1 µg/mL (≈ 2.48 µM), 3.2 µM and more than 100 µM.
On the same counts, the results for `O=c1[nH]sc2c1c(=O)c1cc(F)c(-c3cccc4cnccc34)cc1n2C1CC1` are 0.061 µg/mL (≈ 0.151 µM), 0.016 µg/mL (≈ 0.0397 µM), more than 64 µg/mL, 23 µM and 45 µM.
For the compound `NCc1ccc(-c2cc3c(cc2F)c(=O)c2c(=O)[nH]sc2n3C2CC2)cn1`, the MIC was 0.059 µg/mL (≈ 0.154 µM) in the assay with Escherichia coli, 0.13 µg/mL (≈ 0.34 µM) in the assay with Staphylococcus aureus [1] and 32 µg/mL (≈ 83.7 µM) in the assay on Staphylococcus aureus [2]. The concentration for half-maximal inhibition (IC50) in assay [3] came out at 0.7 µM. Further, the 50% cytotoxic concentration (CC50) in the assay on HEp-2 was more than 100 µM.
For `O=c1[nH]sc2c1c(=O)c1cc(F)c(-c3ccccc3)cc1n2C1CC1`, in that order: 0.06 µg/mL (≈ 0.17 µM), 0.0035 µg/mL (≈ 0.00993 µM), 16 µg/mL (≈ 45.4 µM), 6.3 µM and more than 100 µM.
As to `Cc1cc(-c2cc3c(cc2F)c(=O)c2c(=O)[nH]sc2n3C2CC2)cc(C)n1`, the results for the minimum inhibitory concentration (MIC) in the assay on Escherichia coli, against Staphylococcus aureus [1] and in the assay with Staphylococcus aureus [2] were 0.031 µg/mL (≈ 0.0813 µM), 0.0038 µg/mL (≈ 0.00996 µM) and 0.25 µg/mL (≈ 0.655 µM), respectively. Also, half-maximal inhibition in assay [3] (IC50) required 48 µM. The half-maximal cytotoxic concentration (CC50) in the assay on HEp-2 turned out to be 50 µM.
On the same counts, the results for `COc1ccncc1-c1cc2c(cc1F)c(=O)c1c(=O)[nH]sc1n2C1CC1` are 0.25 µg/mL (≈ 0.652 µM), 0.023 µg/mL (≈ 0.06 µM), 4 µg/mL (≈ 10.4 µM), 10 µM and 50 µM.

Source of the values: ChEMBL document CHEMBL1138996, “Biological evaluation of isothiazoloquinolones containing aromatic heterocycles at the 7-position: In vitro activity of a series of potent antibacterial agents that are effective against methicillin-resistant Staphylococcus aureus” (Bioorg Med Chem Lett, 2006).
